# Key:
# [1] = Chemical stability: hydrolysis in 5% NaHCO3 for one hour; format: physicochemical; conditions: 5% NaHCO3, one hour; for %-release in 5% NaHCO3, ambient: ambient temperature (~20° C.); for %-release in 5% NaHCO3, 100° C.: oil bath at 100° C.
# [2] = Water solubility / hydrophobicity of conjugates (feasibility of intranasal or intravenous dosing); conditions: for hydrophobic character (in words): do not dissolve in a practical amount of water for intravenous dosing at oral equivalent doses; for water solubility (in words): mixed with water, basis for intranasal or intravenous dosing in rats
# [3] = Chemical stability: hydrolysis to hydrocodone in 1 N HCl for 1 hour; conditions: for %-release in 1N HCl, ambient: ambient temperature (~20° C.); for %-release in 1N HCl, 100° C.: oil bath at 100° C.
# [4] = Intranasal PK in rats, plasma hydrocodone and hydromorphone by LC-MS/MS; conditions: equivalent to 2 mg/kg hydrocodone freebase
# [5] = Oral PK in dogs, plasma intact Bz-HC, hydrocodone and hydromorphone by LC-MS/MS; conditions: equivalent to 2 mg/kg freebase hydrocodone, FIG. 17
# [6] = Oral PK in rats, plasma hydrocodone, hydromorphone and intact conjugate by LC-MS/MS
# [7] = Chemical stability: hydrolysis of conjugate in water for one hour; format: physicochemical; conditions: for water, ambient (amount of conjugate hydrolyzed): ambient temperature (about 20° C.); for water, 100° C. (amount of conjugate hydrolyzed): oil bath at 100° C.
# Protocol: Exemplary conjugates of hydrocodone of the present technology and control test conjugates not of the present technology were tested for chemical stability under conditions similar to what a potential drug abuser may use to “extract” the active portion of the molecule, for example dissolved in water, hydrochloric acid or sodium bicarbonate either at ambient temperature or 100° C.
# [8] = equivalent to 2 mg/kg freebase hydrocodone, FIG. 14
# [9] = equivalent to 2 mg/kg hydrocodone freebase, FIG. 11
# [10] = equivalent to 2 mg/kg hydrocodone freebase, FIG. 12
Molecule,"%-release in 5% NaHCO3, ambient [1] [%]","%-release in 5% NaHCO3, 100° C. [1] [%]",hydrophobic character (in words) [2],water solubility (in words) [2],"%-release in 1N HCl, ambient [3] [%]","%-release in 1N HCl, 100° C. [3] [%]",other results
COc1ccc(C(=O)OC2=CC[C@H]3[C@H]4Cc5ccc(OC)c6c5[C@@]3(CCN4C)C2O6)cc1O (stereo partly shown) [3-OH-4-MeO-Bz-HC],0,36,hydrophobic,poorly water soluble,0,35,–
"COc1ccc2c3c1OC1C(OC(=O)CCCCC(=O)O)=CC[C@H]4[C@@H](C2)N(C)CC[C@]314 (stereo partly shown) [Adipate-HC, reference compound]",3,100,–,water soluble,13,100,"AUC for hydromorphone released from Adipate-HC, higher than for Bz-HC (sentence on hydrocodone plasma concentrations) ([4]; FIG. 7): approximately 280%; Cmax for hydromorphone released from Adipate-HC, higher than for Bz-HC (sentence on hydrocodone plasma concentrations) ([4]; FIG. 7): ~60%; AUC for hydromorphone released from Adipate-HC, higher than for Bz-HC ([4]; FIG. 8): approximately 750%; Cmax for hydromorphone released from Adipate-HC, higher than for Bz-HC ([4]; FIG. 8): ~660%"
"COc1ccc2c3c1OC1C(OC(=O)c4ccccc4)=CCC4C(C2)N(C)CCC314 (stereo not shown) [Bz-HC, benzoate-hydrocodone]",–,–,hydrophobic,poor water solubility,–,–,"AUC value for intact Bz-HC as % of the AUC value for hydrocodone [5]: approximately 10%; hydrocodone plasma concentrations compared with Adipate-HC ([4]; FIG. 7): significantly lower; plasma concentration of hydromorphone compared with Adipate-HC ([4]; FIG. 8): very low; Cmax values of hydrocodone and hydromorphone versus dose ([6]; 0.25 to 4.00 mg/kg, particularly for hydromorphone): more variable; maximum plasma concentrations of hydromorphone versus dose ([6]; doses above 2.00 mg/kg of Bz-HC): did not significantly change; exposures (AUC) to hydrocodone and hydromorphone versus dose ([6]; doses of Bz-HC between 0.25 and 4.00 mg/kg, FIGS. 19 and 20): fairly linear; oral PK curve for released hydrocodone compared with YYFFI-HC ([6]; equivalent to 2 mg/kg freebase hydrocodone, FIG. 5): somewhat similar; AUC for intact Bz-HC as % of the AUC value for hydrocodone [6, 8]: approximately 10%; AUC for intact Bz-HC as % of the AUC value for hydromorphone [6, 8]: ~3%"
"COc1ccc2c3c1OC1C(OC(=O)c4ccccc4N)=CCC4C(C2)N(C)CCC314.Cl.Cl (stereo not shown) [Compound 2-ABz-HC, 2-Aminobenzoic Acid Ester of Hydrocodone Dihydrochloride Salt]",–,–,–,–,0,16,"water, ambient (amount of conjugate hydrolyzed) [7]: 0%; water, 100° C. (amount of conjugate hydrolyzed) [7]: 0%; hydrocodone AUC, lower than for Hydrocodone.BT [6, 9]: approximately 35%; hydrocodone Cmax, lower than for Hydrocodone.BT [6, 9]: ~60%; hydromorphone AUC, lower than for Hydrocodone.BT [6, 10]: approximately 25%; hydromorphone Cmax, lower than for Hydrocodone.BT [6, 10]: ~50%"
"COc1ccc2c3c1O[C@H]1C(OC(=O)c4ccccc4O)=CC[C@H]4[C@@H](C2)N(C)CC[C@]314.Cl [Compound 2-OH-Bz-HC, Salicylic Acid Ester of Hydrocodone Hydrochloride Salt]",–,–,hydrophobic,–,–,–,–
COc1ccc2c3c1OC1C(OC(=O)c4cccc(O)c4)=CCC4C(C2)N(C)CCC314 (stereo not shown) [Compound 3-OH-Bz-HC],–,–,hydrophobic,poorly water soluble,–,–,–
COc1ccc(C(=O)OC2=CC[C@H]3[C@H]4Cc5ccc(OC)c6c5[C@@]3(CCN4C)C2O6)cc1 (stereo partly shown) [Compound 4-MeO-Bz-HC],–,–,hydrophobic,–,–,–,"water, ambient (amount of conjugate hydrolyzed) [7]: 0%; water, 100° C. (amount of conjugate hydrolyzed) [7]: 0%"
COc1ccc2c3c1O[C@H]1C(OC(=O)c4ccc(O)cc4)=CC[C@H]4[C@@H](C2)N(C)CC[C@]314 [Compound 4-OH-Bz-HC],1,23,hydrophobic,–,0,30,"water, ambient (amount of conjugate hydrolyzed) [7]: 0%; water, 100° C. (amount of conjugate hydrolyzed) [7]: 0%"
"COc1ccc2c3c1OC1C(OC(=O)COCC(=O)O)=CC[C@H]4[C@@H](C2)N(C)CC[C@]314 (stereo partly shown) [Diglycolate-HC, reference compound]",–,–,–,water soluble,–,–,–
"COc1ccc2c3c1OC1C(OC(=O)c4cccnc4)=CCC4C(C2)N(C)CCC314 (stereo not shown) [Nicotinate-HC, nicotinate-hydrocodone]",–,–,hydrophobic,–,–,–,"hydrocodone and hydromorphone plasma concentrations compared with unconjugated Hydrocodone.BT ([6]; equivalent to 2 mg/kg hydrocodone freebase, FIGS. 9 and 10): below the respective concentrations; AUC values of hydrocodone and hydromorphone compared with Hydrocodone.BT ([6]; same dose based on hydrocodone freebase): within the range of bioequivalence"
COc1ccc2c3c1OC1C(OC(=O)c4ccc5c(c4)OCO5)=CC[C@H]4[C@@H](C2)N(C)CC[C@]314 (stereo partly shown) [Piperonylate-HC],–,–,hydrophobic,poorly water soluble,–,–,–
"Tyr-Tyr-Phe-Phe-Ile-Hydrocodone [YYFFI-HC, reference compound]",0,70,–,–,–,–,–

# From patent US8759368B2, “Benzoic acid, benzoic acid derivatives and heteroaryl carboxylic acid conjugates of hydrocodone, prodrugs, methods of making and use thereof” (KemPharma, Inc., priority 2009, dated 2014)
